Test results: patent US20250129121A1, “POLYPEPTIDE, PRODUCT INCLUDING POLYPEPTIDE FOR INHIBITING FUSOBACTERIUM NUCLEATUM, OR DRUG FOR PREVENTING COLORECTAL CANCER” (priority 2022, published 2025)
In brackets after ≈: the same amount, converted by molar mass. Where a SMILES comes first, the peptide text is derived from it.

Columns and labels:
F. nucleatum 25586 = format: cell-based, Fusobacterium nucleatum; details: 25586, 20 h
Description: (§1) A. Each polypeptide was prepared into a specified stock solution for later use. Minimum inhibitory concentrations (MICs) of the polypeptides P1 to P12 were determined by a broth microdilution method. With 0.01% acetic acid (including 0.2% of bovine serum albumin (BSA)) as a diluent, a series of gradient antimicrobial peptide solutions were prepared by a two-fold dilution method.
(§2) B. 100 μL of each polypeptide stock solution was taken and added to a 96-well cell culture plate, and then each strain solution to be tested (about 10^5/mL) was added in an equal volume to each well. A positive control (including a strain solution, but not including a polypeptide) and a negative control (including neither a strain solution nor a polypeptide). Strains to be tested include Escherichia coli Nissile 1917, Vibrio cholerae H1, Pseudomonas aeruginosa PAO1, F. nucleatum 25586, F. nucleatum 10953, Bifidobacterium uniformis 6597, Lactobacillus acidophilus 6075, Bifidobacterium longum 6194Lactobacillus rhamnosus 6141, and Streptococcus agalactiae H94.
(§3) C. The cell culture plate was incubated at a constant temperature of 37° C. for 20 h, and MIC was recorded when the turbidity was not observed by naked eyes at a bottom of a well. The strains all were purchased from the market.

F. nucleatum 10953 = format: cell-based, Fusobacterium nucleatum; details: 10953, 20 h
Description: as §1, §2, §3

[1] = system: Bifidobacterium uniformis 6597; format: cell-based; details: 20 h
Description: as §1, §2, §3

[2] = system: Pseudomonas aeruginosa PAO1; format: cell-based; details: PAO1, 20 h
Description: as §1, §2, §3

[3] = system: Lactobacillus rhamnosus 6141; format: cell-based; details: 20 h
Description: as §1, §2, §3

[4] = system: Lactobacillus acidophilus 6075; format: cell-based; details: 20 h
Description: as §1, §2, §3

[5] = system: Bifidobacterium longum 6194; format: cell-based; details: 20 h
Description: as §1, §2, §3

[6] = system: Streptococcus agalactiae H94; format: cell-based; details: H94, 20 h
Description: as §1, §2, §3

[7] = system: Escherichia coli Nissile 1917; format: cell-based; details: Nissile 1917, 20 h
Description: as §1, §2, §3

Row | MIC Fusobacterium nucleatum 25586 (F. nucleatum 25586) | MIC Fusobacterium nucleatum 10953 (F. nucleatum 10953) | MIC Bifidobacteriu muniformis 6597 [1] | MIC Pseudomonas aeruginosa PAO1 [2] | MIC Lactobacterium rhamnosus 6141 [3] | MIC Lactobacillus acidophilus 6075 [4] | MIC Bifidobacterium longum 6194 [5] | MIC Streptococcus agalactiae H94 [6] | MIC Escherichia coli nissile1917 [7] | SMILES
1 | >64 µM | >64 µM | >64 µM | >64 µM | >64 µM | >64 µM | >64 µM | >64 µM | >64 µM | N=C(N)NCCC[C@H](NC(=O)CNC(=O)[C@@H]1CCCN1C(=O)[C@H](CCCNC(=N)N)NC(=O)[C@H](Cc1c[nH]c2ccccc12)NC(=O)[C@H](CCC(=O)O)NC(=O)[C@H](Cc1c[nH]c2ccccc12)NC(=O)[C@H](Cc1c[nH]c2ccccc12)NC(=O)[C@H](CCC(=O)O)NC(=O)[C@H](Cc1c[nH]c2ccccc12)NC(=O)[C@H](CCCNC(=N)N)NC(=O)CNC(=O)[C@@H]1CCCN1C(=O)[C@H](CCCNC(=N)N)NC(=O)[C@H](Cc1c[nH]c2ccccc12)NC(=O)[C@H](CCC(=O)O)NC(=O)[C@@H](N)Cc1c[nH]c2ccccc12)C(=O)N[C@@H](Cc1c[nH]c2ccccc12)C(=O)N[C@@H](CCC(=O)O)C(=O)N[C@@H](Cc1c[nH]c2ccccc12)C(=O)O [P3] (H-WEWRPGRWEWWEWRPGRWEW-OH; N-terminus assumed)
2 | 2 µM (≈ 5.91 µg/mL) | 2 µM (≈ 5.91 µg/mL) | 64 µM (≈ 189 µg/mL) | 32 µM (≈ 94.5 µg/mL) | >64 µM | 32 µM (≈ 94.5 µg/mL) | 16 µM (≈ 47.3 µg/mL) | 2 µM (≈ 5.91 µg/mL) | 32 µM (≈ 94.5 µg/mL) | N=C(N)NCCC[C@H](NC(=O)CNC(=O)[C@@H]1CCCN1C(=O)[C@H](CCCNC(=N)N)NC(=O)[C@H](Cc1c[nH]c2ccccc12)NC(=O)[C@H](CCCCN)NC(=O)[C@H](Cc1c[nH]c2ccccc12)NC(=O)[C@H](Cc1c[nH]c2ccccc12)NC(=O)[C@H](CCCCN)NC(=O)[C@H](Cc1c[nH]c2ccccc12)NC(=O)[C@H](CCCNC(=N)N)NC(=O)CNC(=O)[C@@H]1CCCN1C(=O)[C@H](CCCNC(=N)N)NC(=O)[C@H](Cc1c[nH]c2ccccc12)NC(=O)[C@H](CCCCN)NC(=O)[C@@H](N)Cc1c[nH]c2ccccc12)C(=O)N[C@@H](Cc1c[nH]c2ccccc12)C(=O)N[C@@H](CCCCN)C(=O)N[C@@H](Cc1c[nH]c2ccccc12)C(=O)O [P12] (H-WKWRPGRWKWWKWRPGRWKW-OH; N-terminus assumed)
3 | >64 µM | >64 µM | >64 µM | >64 µM | >64 µM | >64 µM | >64 µM | >64 µM | >64 µM | N=C(N)NCCC[C@H](NC(=O)CNC(=O)[C@@H]1CCCN1C(=O)[C@H](CCCNC(=N)N)NC(=O)[C@H](Cc1c[nH]c2ccccc12)NC(=O)[C@H](CC(=O)O)NC(=O)[C@@H](N)Cc1c[nH]c2ccccc12)C(=O)N[C@@H](Cc1c[nH]c2ccccc12)C(=O)N[C@@H](CC(=O)O)C(=O)N[C@@H](Cc1c[nH]c2ccccc12)C(=O)O [P4, WDWRPGRWDW] (H-WDWRPGRWDW-OH; N-terminus assumed)
4 | >64 µM | >64 µM | >64 µM | >64 µM | >64 µM | >64 µM | >64 µM | >64 µM | >64 µM | N=C(N)NCCC[C@H](NC(=O)CNC(=O)[C@@H]1CCCN1C(=O)[C@H](CCCNC(=N)N)NC(=O)[C@H](Cc1c[nH]c2ccccc12)NC(=O)[C@H](CCC(=O)O)NC(=O)[C@H](Cc1c[nH]c2ccccc12)NC(=O)[C@H](CCCNC(=N)N)NC(=O)[C@H](Cc1c[nH]c2ccccc12)NC(=O)[C@H](CCC(=O)O)NC(=O)[C@@H](N)Cc1c[nH]c2ccccc12)C(=O)N[C@@H](Cc1c[nH]c2ccccc12)C(=O)N[C@@H](CCC(=O)O)C(=O)N[C@@H](Cc1c[nH]c2ccccc12)C(=O)N[C@@H](CCCNC(=N)N)C(=O)N[C@@H](Cc1c[nH]c2ccccc12)C(=O)N[C@@H](CCC(=O)O)C(=O)N[C@@H](Cc1c[nH]c2ccccc12)C(=O)O [P2, WEWRWEWRPGRWEWRWEW] (H-WEWRWEWRPGRWEWRWEW-OH; N-terminus assumed)
5 | 8 µM (≈ 11.9 µg/mL) | 16 µM (≈ 23.8 µg/mL) | 64 µM (≈ 95.1 µg/mL) | >64 µM | >64 µM | 64 µM (≈ 95.1 µg/mL) | >64 µM | >64 µM | 64 µM (≈ 95.1 µg/mL) | N=C(N)NCCC[C@H](NC(=O)CNC(=O)[C@@H]1CCCN1C(=O)[C@H](CCCNC(=N)N)NC(=O)[C@H](Cc1c[nH]c2ccccc12)NC(=O)[C@H](CCCCN)NC(=O)[C@@H](N)Cc1c[nH]c2ccccc12)C(=O)N[C@@H](Cc1c[nH]c2ccccc12)C(=O)N[C@@H](CCCCN)C(=O)N[C@@H](Cc1c[nH]c2ccccc12)C(=O)O [P10, WKWRPGRWKW] (H-WKWRPGRWKW-OH; N-terminus assumed)
6 | 64 µM (≈ 191 µg/mL) | 64 µM (≈ 191 µg/mL) | >64 µM | >64 µM | >64 µM | 64 µM (≈ 191 µg/mL) | 64 µM (≈ 191 µg/mL) | >64 µM | >64 µM | N=C(N)NCCC[C@H](NC(=O)CNC(=O)[C@@H]1CCCN1C(=O)[C@H](CCCNC(=N)N)NC(=O)[C@H](Cc1c[nH]c2ccccc12)NC(=O)[C@H](Cc1c[nH]cn1)NC(=O)[C@H](Cc1c[nH]c2ccccc12)NC(=O)[C@H](Cc1c[nH]c2ccccc12)NC(=O)[C@H](Cc1c[nH]cn1)NC(=O)[C@H](Cc1c[nH]c2ccccc12)NC(=O)[C@H](CCCNC(=N)N)NC(=O)CNC(=O)[C@@H]1CCCN1C(=O)[C@H](CCCNC(=N)N)NC(=O)[C@H](Cc1c[nH]c2ccccc12)NC(=O)[C@H](Cc1c[nH]cn1)NC(=O)[C@@H](N)Cc1c[nH]c2ccccc12)C(=O)N[C@@H](Cc1c[nH]c2ccccc12)C(=O)N[C@@H](Cc1c[nH]cn1)C(=O)N[C@@H](Cc1c[nH]c2ccccc12)C(=O)O [P9] (H-WHWRPGRWHWWHWRPGRWHW-OH; N-terminus assumed)
7 | 64 µM (≈ 186 µg/mL) | 64 µM (≈ 186 µg/mL) | >64 µM | >64 µM | >64 µM | >64 µM | >64 µM | >64 µM | 64 µM (≈ 186 µg/mL) | N=C(N)NCCC[C@H](NC(=O)CNC(=O)[C@@H]1CCCN1C(=O)[C@H](CCCNC(=N)N)NC(=O)[C@H](Cc1c[nH]c2ccccc12)NC(=O)[C@H](CC(=O)O)NC(=O)[C@H](Cc1c[nH]c2ccccc12)NC(=O)[C@H](Cc1c[nH]c2ccccc12)NC(=O)[C@H](CC(=O)O)NC(=O)[C@H](Cc1c[nH]c2ccccc12)NC(=O)[C@H](CCCNC(=N)N)NC(=O)CNC(=O)[C@@H]1CCCN1C(=O)[C@H](CCCNC(=N)N)NC(=O)[C@H](Cc1c[nH]c2ccccc12)NC(=O)[C@H](CC(=O)O)NC(=O)[C@@H](N)Cc1c[nH]c2ccccc12)C(=O)N[C@@H](Cc1c[nH]c2ccccc12)C(=O)N[C@@H](CC(=O)O)C(=O)N[C@@H](Cc1c[nH]c2ccccc12)C(=O)O [P6] (H-WDWRPGRWDWWDWRPGRWDW-OH; N-terminus assumed)
